Reference: patent US9938269B2, “Inhibitor compounds of phosphodiesterase type 10A” (ABBVIE INC., priority 2011, dated 2018)
Structures can show the parent of a compound that is named as a salt.

Target: T1, PDE10A (human) (Homo sapiens, UniProt Q9Y233)
T1 construct: purchased BPS Bioscience
Test: Measurement of PDE activity (HTRF cAMP kit), human PDE10A
Format: biochemical
Settings: PDE enzymatic reaction, substrate 20 nM for PDE10, 60 minutes at 29 C
Experimental: The recombinant PDE proteins are used in in vitro enzymatic reaction for measurement of PDE activity. These recombinant proteins, including PDE10A (human, rat and mouse PDE10) and isoforms of PDEs 1, 3, 4, and 5, were purchased from commercial vendor BPS Bioscience. The enzymatic activity of PDEs was determined by cAMP measurement kit from CisBio (IBA) using HTRF technology.
The PDE enzymatic reaction was carried out in assay buffer (20 mM Tris-HCl pH7.5, 10 mM MgCl2, 0.1% bovine serum albumin) containing enzyme and substrate. The PDE enzymes concentration ranged from 10 pM-250 pM, depending on each enzyme's specific activity. The substrate cyclic nucleotide (cAMP or cGMP) concentration used in the assay was 20 nM for PDE10, and 100 nM for other PDEs. The inhibitory effect of compound was determined by incubating various concentration of inhibitor in the enzymatic assay. Typically, compound was serial diluted in DMSO then further diluted in assay buffer. Next, the compound at varying concentration was mixed with PDE enzyme. The reaction was initiated by addition of cyclic nucleotide substrate, and incubated for 60 minutes at 29 C. The reaction was stopped by addition of lysis buffer from assay kit. The cAMP-d2 and anti-cAMP cryptate in the lysis buffer detected the level of cAMP left from the PDE hydrolysis reaction. The PDE activity is reversely correlated with the amount of cAMP left in the reaction and can be converted to the percent activity of an uninhibited control (100%). Thus, IC50 value of inhibitor can be obtained by plotting inhibitor concentration against PDE activity at that concentration.

T1 sequence (Q9Y233 whole entry): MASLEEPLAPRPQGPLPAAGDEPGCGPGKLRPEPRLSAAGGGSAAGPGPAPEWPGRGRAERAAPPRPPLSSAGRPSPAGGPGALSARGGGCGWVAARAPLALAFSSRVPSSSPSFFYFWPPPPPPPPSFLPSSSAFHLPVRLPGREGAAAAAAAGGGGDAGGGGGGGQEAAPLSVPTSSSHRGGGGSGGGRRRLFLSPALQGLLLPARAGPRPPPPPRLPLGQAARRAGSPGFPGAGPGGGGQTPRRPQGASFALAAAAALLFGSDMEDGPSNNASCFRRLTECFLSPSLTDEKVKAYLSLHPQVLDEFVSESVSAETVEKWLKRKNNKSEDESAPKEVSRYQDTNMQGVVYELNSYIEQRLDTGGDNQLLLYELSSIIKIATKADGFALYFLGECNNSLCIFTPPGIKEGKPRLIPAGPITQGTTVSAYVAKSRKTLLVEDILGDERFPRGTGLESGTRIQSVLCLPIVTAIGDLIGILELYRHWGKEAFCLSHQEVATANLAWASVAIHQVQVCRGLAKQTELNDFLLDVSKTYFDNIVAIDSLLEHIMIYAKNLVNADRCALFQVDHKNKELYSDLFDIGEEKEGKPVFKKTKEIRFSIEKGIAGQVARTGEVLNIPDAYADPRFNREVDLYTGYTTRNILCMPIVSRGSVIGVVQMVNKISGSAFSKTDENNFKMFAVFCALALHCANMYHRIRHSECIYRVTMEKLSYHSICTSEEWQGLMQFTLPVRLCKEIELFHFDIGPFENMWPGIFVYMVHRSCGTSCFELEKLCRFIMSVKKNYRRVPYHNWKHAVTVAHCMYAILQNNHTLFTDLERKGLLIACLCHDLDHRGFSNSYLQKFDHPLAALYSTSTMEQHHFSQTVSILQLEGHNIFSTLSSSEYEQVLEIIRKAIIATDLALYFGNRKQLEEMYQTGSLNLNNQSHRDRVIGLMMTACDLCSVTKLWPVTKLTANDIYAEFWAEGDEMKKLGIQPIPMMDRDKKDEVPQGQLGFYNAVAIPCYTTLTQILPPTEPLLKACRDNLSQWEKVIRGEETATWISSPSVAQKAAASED

Row | IC50 [nM] | SMILES
1 | 100 to 200 | CN(C)c1ncc(-c2cccc3c2CN(CCc2ccc4ccccc4n2)C3=O)cn1 [Example 341, 4-(2-Dimethylamino-pyrimidin-5-yl)-2-(2-quinolin-2-yl-ethyl)-2,3-dihydro-isoindol-1-one]
2 | < 100 | Cc1cnc(-c2cccc3c2CN(CCc2ccc4ccccc4n2)C3=O)cn1 [Example 350, 4-(5-Methyl-pyrazin-2-yl)-2-(2-quinolin-2-yl-ethyl)-2,3-dihydro-isoindol-1-one]
3 | 200 to 500 | CN1CCN(S(=O)(=O)c2cccc3c2CN(c2cccc4c2CN(CCc2ccc5ccccc5n2)C4=O)CC3)CC1 [Example 321, 4-[8-(4-Methyl-piperazine-1-sulfonyl)-3,4-dihydro-1H-isoquinolin-2-yl]-2-(2-quinolin-2-yl-ethyl)-2,3-dihydro-isoindol-1-one]
4 | < 100 | O=C1c2c(cccc2-c2cccnc2)CN1CCc1ccc2ccccc2n1 [Example 30, 7-Pyridin-3-yl-2-(2-quinolin-2-yl-ethyl)-2,3-dihydro-isoindol-1-one]
5 | 100 to 200 | O=C1c2c(cccc2-c2cc[nH]n2)CN1CCc1ccc2ccccc2n1 [Example 53, 7-(1H-Pyrazol-3-yl)-2-(2-quinolin-2-yl-ethyl)-2,3-dihydro-isoindol-1-one]
6 | < 100 | COc1ccc(-c2ccc(F)cc2)c2c1CN(CCc1ccc3ccccc3n1)C2=O [Example 187, 7-(4-Fluoro-phenyl)-4-methoxy-2-(2-quinolin-2-yl-ethyl)-2,3-dihydro-isoindol-1-one]
7 | < 100 | O=C1c2c(cccc2-c2ccc3cn[nH]c3c2)CN1CCc1ccc2ccccc2n1 [Example 97, 7-(1H-Indazol-6-yl)-2-(2-quinolin-2-yl-ethyl)-2,3-dihydro-isoindol-1-one]
8 | 100 to 200 | O=C1c2c(cccc2N2CCOCC2)CN1CCc1cc(Cl)c2ccccc2n1 [Example 117, 2-[2-(4-Chloro-quinolin-2-yl)-ethyl]-7-morpholin-4-yl-2,3-dihydro-isoindol-1-one trifluoroacetate]
9 | 100 to 200 | COc1ncc(-c2cccc3c2C(=O)N(CCc2ccc4ccccc4n2)C3)cn1 [Example 61, 7-(2-Methoxy-pyrimidin-5-yl)-2-(2-quinolin-2-yl-ethyl)-2,3-dihydro-isoindol-1-one]
10 | < 100 | Cc1cnccc1-c1ccnc2c1C(=O)N(CCc1ccc3ccccc3n1)C2 [Example 322, 4-(3-Methyl-pyridin-4-yl)-6-(2-quinolin-2-yl-ethyl)-6,7-dihydro-pyrrolo[3,4-b]pyridin-5-one]
11 | < 100 | CC(C)Oc1ccc(-c2ccncc2)c2c1CN(CCc1ccc3ccccc3n1)C2=O [Example 205, 4-Isopropoxy-7-pyridin-4-yl-2-(2-quinolin-2-yl-ethyl)-2,3-dihydro-isoindol-1-one]
12 | 100 to 200 | CCn1cc(-c2cccc3c2CN(CCc2ccc4ccccc4n2)C3=O)cn1 [Example 347, 4-(1-Ethyl-1H-pyrazol-4-yl)-2-(2-quinolin-2-yl-ethyl)-2,3-dihydro-isoindol-1-one]
13 | 100 to 200 | O=C1c2c(cccc2-c2ccsc2)CN1CCc1ccc2ccccc2n1 [Example 25, 2-(2-Quinolin-2-yl-ethyl)-7-thiophen-3-yl-2,3-dihydro-isoindol-1-one]
14 | 100 to 200 | Cn1cc(-c2cccc3c2C(=O)N(CCc2ccc4ccccc4n2)C3)cn1 [Example 70, 7-(1-Methyl-1H-pyrazol-4-yl)-2-(2-quinolin-2-yl-ethyl)-2,3-dihydro-isoindol-1-one]
15 | < 100 | CCCn1c(CCN2Cc3cccc(-c4ccncc4)c3C2=O)nc2ccccc21 [Example 302, 2-[2-(1-Propyl-1H-benzoimidazol-2-yl)-ethyl]-7-pyridin-4-yl-2,3-dihydro-isoindol-1-one trifluoroacetate]
16 | 100 to 200 | O=C1c2c(cccc2-c2ccc(F)cc2F)CN1CCc1ccc2ccccc2n1 [Example 45, 7-(2,4-Difluoro-phenyl)-2-(2-quinolin-2-yl-ethyl)-2,3-dihydro-isoindol-1-one]
17 | 100 to 200 | COc1ccc(-c2ccc(OC)c3c2C(=O)N(CCc2ccc4ccccc4n2)C3)cc1 [Example 186, 4-Methoxy-7-(4-methoxy-phenyl)-2-(2-quinolin-2-yl-ethyl)-2,3-dihydro-isoindol-1-one]
18 | < 100 | Cc1ccc2c(c1)nc(CCN1Cc3cccc(-c4ccncc4)c3C1=O)n2C [Example 301, 2-[2-(1,5-Dimethyl-1H-benzoimidazol-2-yl)-ethyl]-7-pyridin-4-yl-2,3-dihydro-isoindol-1-one trifluoroacetate]
19 | 100 to 200 | COc1ccc(-c2ccc(F)c3c2C(=O)N(CCc2ccc4ccccc4n2)C3)cc1 [compound 441, 4-Fluoro-7-(4-methoxyphenyl)-2-[2-(2-quinolyl)ethyl]isoindolin-1-one]

Row | IC50 [nM] | SMILES
20 | < 100 | CNCOc1ccc(-c2ccncc2)c2c1CN(CCc1ccc3ccccc3n1)C2=O [Example 276, 4-Methylaminomethoxy-7-pyridin-4-yl-2-(2-quinolin-2-yl-ethyl)-2,3-dihydro-isoindol-1-one]
21 | 200 to 500 | COc1ccc(-c2cccc3c2C(=O)N(CCc2ccc4ccccc4n2)C3)cc1F [Example 32, 7-(3-Fluoro-4-methoxy-phenyl)-2-(2-quinolin-2-yl-ethyl)-2,3-dihydro-isoindol-1-one]
22 | 100 to 200 | CC(C)n1c(CCN2Cc3cccc(N4CCOCC4)c3C2=O)nc2ccccc21 [Example 304, 2-[2-(1-Isopropyl-1H-benzoimidazol-2-yl)-ethyl]-7-morpholin-4-yl-2,3-dihydro-isoindol-1-one trifluoroacetate]
23 | < 100 | O=C1c2c(-c3ccncc3)ccc(OCF)c2CN1CCc1ccc2ccccc2n1 [Example 299, 4-Fluoromethoxy-7-pyridin-4-yl-2-(2-quinolin-2-yl-ethyl)-2,3-dihydro-isoindol-1-one]
24 | < 100 | CCn1c(CCN2Cc3cccc(-c4ccncc4)c3C2=O)nc2ccccc21 [Example 222, 2-[2-(1-Ethyl-1H-benzoimidazol-2-yl)-ethyl]-7-pyridin-4-yl-2,3-dihydro-isoindol-1-one trifluoroacetate]
25 | < 100 | O=C1c2c(NC3COC3)ccc(F)c2CN1CCc1ccc2ccccc2n1 [compound 437, 4-Fluoro-7-(oxetan-3-ylamino)-2-[2-(2-quinolyl)ethyl]isoindolin-1-one]
26 | 200 to 500 | O=C1c2cccc(N3CCNCC3)c2CN1CCc1ccc2ccccc2n1 [Example 141, 4-piperazin-1-yl-2-(2-quinolin-2-yl-ethyl)-2,3-dihydro-isoindol-1-one]
27 | 200 to 500 | O=C1c2c(cccc2-c2nccs2)CN1CCc1ccc2ccccc2n1 [Example 82, 2-(2-Quinolin-2-yl-ethyl)-7-thiazol-2-yl-2,3-dihydro-isoindol-1-one]
28 | < 100 | O=C1c2c(N3CCC(C(F)F)C3)ccnc2CN1CCc1ccc2ccccc2n1 (stereo not shown) [compound 434]
29 | < 100 | O=C1c2c(-c3cc[nH]n3)ccnc2CN1CCc1ccc2ccccc2n1 [Example 323, 4-(1H-Pyrazol-3-yl)-6-(2-quinolin-2-yl-ethyl)-6,7-dihydro-pyrrolo[3,4-b]pyridin-5-one]
30 | < 100 | O=C1c2c(cccc2N2CCSCC2)CN1CCc1ccc2ccccc2n1 [Example 150, 2-(2-Quinolin-2-yl-ethyl)-7-thiomorpholin-4-yl-2,3-dihydro-isoindol-1-one]
31 | < 100 | O=C1c2c(C3=COCC3)ccnc2CN1CCc1ccc2ccccc2n1 [Example 266, 4-(4,5-Dihydro-furan-3-yl)-6-(2-quinolin-2-yl-ethyl)-6,7-dihydro-pyrrolo[3,4-b]pyridin-5-one]
32 | < 100 | O=C1c2c(-c3ccncc3)ccnc2CN1CCc1nc(C2CC2)cs1 [compound 517, 6-[2-(4-Cyclopropylthiazol-2-yl)ethyl]-4-(4-pyridyl)-7H-pyrrolo[3,4-b]pyridin-5-one]
33 | < 100 | O=C1c2c(cccc2-c2ccoc2)CN1CCc1ccc2ccccc2n1 [Example 46, 7-Furan-3-yl-2-(2-quinolin-2-yl-ethyl)-2,3-dihydro-isoindol-1-one]
34 | < 100 | O=C1c2c(-c3cn[nH]c3)ccc(F)c2CN1CCc1ccc2ccccc2n1 [compound 442, 4-Fluoro-7-(1H-pyrazol-4-yl)-2-[2-(2-quinolyl)ethyl]isoindolin-1-one trifluoroacetate]
35 | 100 to 200 | Cn1ccc(-c2cccc3c2CN(CCc2ccc4ccccc4n2)C3=O)c1 [Example 352, 4-(1-Methyl-1H-pyrrol-3-yl)-2-(2-quinolin-2-yl-ethyl)-2,3-dihydro-isoindol-1-one]
36 | 200 to 500 | O=C1c2cccc(-c3ccnc(C4CC4)c3)c2CN1CCc1ccc2ccccc2n1 [Example 354, 4-(2-Cyclopropyl-pyridin-4-yl)-2-(2-quinolin-2-yl-ethyl)-2,3-dihydro-isoindol-1-one]
37 | 200 to 500 | CCOC(=O)C1CCN(c2ccnc3c2C(=O)N(CCc2ccc4ccccc4n2)C3)CC1 [Example 319, 1-[5-Oxo-6-(2-quinolin-2-yl-ethyl)-6,7-dihydro-5H-pyrrolo[3,4-b]pyridin-4-yl]-piperidine-4-carboxylic acid ethyl ester]
